Results taken from PubChem BioAssay AID1919000 (Molecular Pharmacology Branch, DTP, NCI, 2023).
pIC50: −log10 of the molar value. Several values for one entry are separate records, joined by “and”; a condition that tells them apart may be missing. Equal entries are not always repeated.

Test system: 653999-131-R-J2-PDC complex spheroids, growth % test/control
Assay: Anticancer human tumor 653999-131-R-J2-PDC patient-derived lung adenocarcinoma cell line growth inhibition [AhR]
Settings: for viability, T/C: stronger effect = lower value
Procedure, shortened: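 Spheroids combined tumor cells with HUVEC endothelial cells and human MSCs as stroma. AhR antagonists were paired with standard or investigational drugs, each dosed in half-log steps down from near clinical Cmax, or from 10 microM where Cmax was unknown.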

[1] = curve of first compound, second compound 0.1 µM
[2] = curve of first compound, second compound 0.316 µM
[3] = curve of first compound, second compound 1 µM
[4] = curve of first compound, second compound 3.16 µM
[5] = curve of first compound, second compound 10 µM
[6] = second compound 0.1 µM, first compound 0.0316 µM
[7] = second compound 0.1 µM, first compound 0.1 µM
[8] = second compound 0.1 µM, first compound 0.316 µM
[9] = second compound 0.1 µM, first compound 1 µM
[10] = second compound 0.1 µM, first compound 3.16 µM
[11] = second compound 0.1 µM, first compound 10 µM
[12] = second compound 0.316 µM, first compound 0.0316 µM
[13] = second compound 0.316 µM, first compound 0.1 µM
[14] = second compound 0.316 µM, first compound 0.316 µM
[15] = second compound 0.316 µM, first compound 1 µM
[16] = second compound 0.316 µM, first compound 3.16 µM
[17] = second compound 0.316 µM, first compound 10 µM
[18] = second compound 1 µM, first compound 0.0316 µM
[19] = second compound 1 µM, first compound 0.1 µM
[20] = second compound 1 µM, first compound 0.316 µM
[21] = second compound 1 µM, first compound 1 µM
[22] = second compound 1 µM, first compound 3.16 µM
[23] = second compound 1 µM, first compound 10 µM
[24] = second compound 3.16 µM, first compound 0.0316 µM
[25] = second compound 3.16 µM, first compound 0.1 µM
[26] = second compound 3.16 µM, first compound 0.316 µM
[27] = second compound 3.16 µM, first compound 1 µM
[28] = second compound 3.16 µM, first compound 3.16 µM
[29] = second compound 3.16 µM, first compound 10 µM
[30] = second compound 10 µM, first compound 0.0316 µM
[31] = second compound 10 µM, first compound 0.1 µM
[32] = second compound 10 µM, first compound 0.316 µM
[33] = second compound 10 µM, first compound 1 µM
[34] = second compound 10 µM, first compound 3.16 µM
[35] = second compound 10 µM, first compound 10 µM
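Further: spheroids exposed to agents for seven days.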
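Wherever viability, T/C is given: 100% = DMSO vehicle control viability.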

| SMILES | pIC50 [1] | pIC50 [2] | pIC50 [3] | pIC50 [4] | pIC50 [5] | viability, T/C [6] [%] | viability, T/C [7] [%] | viability, T/C [8] [%] | viability, T/C [9] [%] | viability, T/C [10] [%] | viability, T/C [11] [%] | viability, T/C [12] [%] | viability, T/C [13] [%] | viability, T/C [14] [%] | viability, T/C [15] [%] | viability, T/C [16] [%] | viability, T/C [17] [%] | viability, T/C [18] [%] | viability, T/C [19] [%] | viability, T/C [20] [%] | also measured |
| --- | --- | --- | --- | --- | --- | --- | --- | --- | --- | --- | --- | --- | --- | --- | --- | --- | --- | --- | --- | --- | --- |
| NS(=O)(=O)OCC1CC(n2ccc3c(NC4CCc5ccccc54)ncnc32)CC1O (stereo not given) + Cc1cncc(-c2nc(NCCc3c[nH]c4ccccc34)c3ncn(C(C)C)c3n2)c1 | 5.21 | 5.75 | < 5.00 | 6.02 | > 7.50 | 108 | 106 | 101 | 71.4 | 50.4 | 49.8 | 113 | 112 | 106 | 52.2 | 48.4 | 47.2 | 112 | 120 | 108 | viability, T/C [21]: 49.3%; viability, T/C [22]: 50.5%; viability, T/C [23]: 51.2%; viability, T/C [24]: 117%; viability, T/C [25]: 104%; viability, T/C [26]: 90.5%; viability, T/C [27]: 46.8%; viability, T/C [28]: 40.5%; viability, T/C [29]: 43.3%; viability, T/C [30]: 44.4%; viability, T/C [31]: 38%; viability, T/C [32]: 39.4%; viability, T/C [33]: 22.3%; viability, T/C [34]: 18.5%; viability, T/C [35]: 19.4% |
| Nc1ccccc1NC(=O)c1ccc(CNC(=O)OCc2cccnc2)cc1 + CC(CO)NC(=O)c1cc(-c2ccc(Cl)cc2)nn(-c2cnn(C)c2)c1=O | 5.42 | 5.45 | 5.56 | 5.46 | 5.58 | 86.6 | 93 | 78.1 | 65.4 | 65.2 | 13 | 87.5 | 85.2 | 83.7 | 68.7 | 55.5 | 15.6 | 88 | 94.3 | 76.1 | viability, T/C [21]: 65.5%; viability, T/C [22]: 50.7%; viability, T/C [23]: 14.2%; viability, T/C [24]: 93.3%; viability, T/C [25]: 95.6%; viability, T/C [26]: 84.5%; viability, T/C [27]: 70%; viability, T/C [28]: 57.5%; viability, T/C [29]: 12.9%; viability, T/C [30]: 91%; viability, T/C [31]: 101%; viability, T/C [32]: 76.2%; viability, T/C [33]: 67.2%; viability, T/C [34]: 50.3%; viability, T/C [35]: 6.65% |
| O=C(c1cc(Cc2n[nH]c(=O)c3ccccc23)ccc1F)N1CCN(C(=O)C2CC2)CC1 + CC(CO)NC(=O)c1cc(-c2ccc(Cl)cc2)nn(-c2cnn(C)c2)c1=O | < 5.00 | < 5.00 | < 5.00 | < 5.00 | < 5.00 | 82.1 | 89.5 | 81.5 | 83.6 | 79.9 | 76.9 | 91 | 97.5 | 96.1 | 84.2 | 81.1 | 78.7 | 84.7 | 90.4 | 89.5 | viability, T/C [21]: 85.6%; viability, T/C [22]: 81.7%; viability, T/C [23]: 79.5%; viability, T/C [24]: 95%; viability, T/C [25]: 86.6%; viability, T/C [26]: 93%; viability, T/C [27]: 85.5%; viability, T/C [28]: 84.6%; viability, T/C [29]: 78.3%; viability, T/C [30]: 88%; viability, T/C [31]: 94.5%; viability, T/C [32]: 82.9%; viability, T/C [33]: 84.5%; viability, T/C [34]: 76.3%; viability, T/C [35]: 75.7% |
| CC1(C)CCC(CN2CCN(c3ccc(C(=O)NS(=O)(=O)c4ccc(NCC5CCOCC5)c([N+](=O)[O-])c4)c(Oc4cnc5[nH]ccc5c4)c3)CC2)=C(c2ccc(Cl)cc2)C1 | – | – | – | – | – | – | – | – | – | – | – | – | – | – | – | – | – | – | – | – | viability, T/C (compound 0.0316 µM): 108% (2×) and 103%; viability, T/C (compound 0.1 µM): 97.3% and 103% and 116%; viability, T/C (compound 0.316 µM): 98% and 88.8% and 104%; viability, T/C (compound 1 µM): 105% and 102% and 104%; viability, T/C (compound 3.16 µM): 106% and 99.7% and 108%; viability, T/C (compound 10 µM): 85.9% and 58.9% and 74.9%; pIC50 (curve of compound): < 5.00 |
| O=C(c1cc(Cc2n[nH]c(=O)c3ccccc23)ccc1F)N1CCN(C(=O)C2CC2)CC1 + Cc1cncc(-c2nc(NCCc3c[nH]c4ccccc34)c3ncn(C(C)C)c3n2)c1 | < 5.00 | < 5.00 | < 5.00 | < 5.00 | 5.52 | 99.2 | 101 | 92.2 | 94 | 97.7 | 79.3 | 96.2 | 106 | 97.1 | 102 | 91.5 | 86.3 | 108 | 114 | 112 | viability, T/C [21]: 103%; viability, T/C [22]: 96.9%; viability, T/C [23]: 91.3%; viability, T/C [24]: 102%; viability, T/C [25]: 109%; viability, T/C [26]: 112%; viability, T/C [27]: 114%; viability, T/C [28]: 101%; viability, T/C [29]: 91.3%; viability, T/C [30]: 61.2%; viability, T/C [31]: 61.1%; viability, T/C [32]: 55.1%; viability, T/C [33]: 55.5%; viability, T/C [34]: 49.3%; viability, T/C [35]: 44.7% |
| Cc1ccccc1N=Nc1ccc(NC(=O)c2ccnn2C)c(C)c1 | – | – | – | – | – | – | – | – | – | – | – | – | – | – | – | – | – | – | – | – | viability, T/C (compound 0.1 µM): 96.6% [middle of 19 runs]; viability, T/C (compound 1 µM): 95.3% [middle of 20 runs]; pIC50 (compound alone, run of 06/14/2022): < 5.00 |
